# Data as given in US20080319001A1, “Cancer Treatment Using Specific 3,6,9-Substituted Acridines” (priority 2005, published 2008).
# Assays:
# human telomerase = details: Read et al. 2001; Harrison et al. 2003; Schultes et al. 2004; cited from earlier work
# A549-derived xenografts = assay: A549 xenograft combination study; type: in vivo, mouse; details: single agent (AS1410 1 mg/kg or cisplatin 6 mg/kg), after approximately 60 days
# Method: AS1410 was reconstituted in 0.9% saline B.P. to the required final concentration (0.331 and 0.0993) mg/ml of AS1410 succinate salt for intravenous administration).
# The xenografts were prepared from the lung carcinoma A549 (ATCC Number CCL-185). Cells were grown in accordance with standard operating procedures and established methodology for this cell line to provide 5×10^6 cells per mouse.
# A549-derived xenografts were established in 50 female nu/nu MF1 mice respectively by subcutaneous injection into the right flank of each mouse (5×10^6 cells in 100 μl phosphate buffered saline).
# Animals were checked regularly until visible tumours appeared. Tumours were then measured in accordance with the relevant SOP regularly and tumour volume calculated using the formula: […]
# Once the tumours were established, the mice were allocated into groups of 9 mice using a randomization procedure based on stratified xenograft volume.
# Day 0 is defined as the day on which the average tumour volume is between 0.04 to 0.1 cm^3. Relative tumour volume on Day 0 is defined as 1.
# Each mouse was observed and tumours measured until the xenografts tripled (3V0) in volume compared with volume on the day of treatment (V0). The elapsed period is the volume tripling time (VTT).
# AS1410 was given by slow bolus intravenous injection. For AS1410 a dose volume 5 μl/g bodyweight was used. Control mice were untreated. […]
Compound,in vitro inhibitory activity against human telomerase (human telomerase),relative tumour volume (A549-derived xenografts)
Nc1ccc(Nc2c3ccc(NC(=O)CCN4CCCC4)cc3nc3cc(NC(=O)CCN4CCCC4)ccc23)cc1 [BR-ACO-20],potent in vitro inhibitory activity,–
"N.N.[Cl][Pt][Cl] [cisplatin, cis-diaminedichloroplatinum(II)]",–,about 5
